Test results: ChEMBL document CHEMBL1201862, “PubChem BioAssay data set” (2004)
Counter-ions that a name gives are not always drawn. Each block holds one molecule with its values, some of them ahead of it. Active and inactive are the calls of the source.

Tests used:
[1] = Vero cell cytotoxicity, dose response, cytotoxicity control for Vif-APOBEC3G degradation inhibitor project, Vero cells (AID 1117358); format: functional; settings: Human immunodeficiency virus 1, Vero
Genome polyprotein = Genome polyprotein (dengue virus type 2, UniProt P29990); experiment: Dengue-2 NS5 methyltransferase inhibitors, primary screen, biochemical, confirmation dose response (AID 588689); format: functional
Genome polyprotein, sequence (P29990 2492-3391 limits assumed): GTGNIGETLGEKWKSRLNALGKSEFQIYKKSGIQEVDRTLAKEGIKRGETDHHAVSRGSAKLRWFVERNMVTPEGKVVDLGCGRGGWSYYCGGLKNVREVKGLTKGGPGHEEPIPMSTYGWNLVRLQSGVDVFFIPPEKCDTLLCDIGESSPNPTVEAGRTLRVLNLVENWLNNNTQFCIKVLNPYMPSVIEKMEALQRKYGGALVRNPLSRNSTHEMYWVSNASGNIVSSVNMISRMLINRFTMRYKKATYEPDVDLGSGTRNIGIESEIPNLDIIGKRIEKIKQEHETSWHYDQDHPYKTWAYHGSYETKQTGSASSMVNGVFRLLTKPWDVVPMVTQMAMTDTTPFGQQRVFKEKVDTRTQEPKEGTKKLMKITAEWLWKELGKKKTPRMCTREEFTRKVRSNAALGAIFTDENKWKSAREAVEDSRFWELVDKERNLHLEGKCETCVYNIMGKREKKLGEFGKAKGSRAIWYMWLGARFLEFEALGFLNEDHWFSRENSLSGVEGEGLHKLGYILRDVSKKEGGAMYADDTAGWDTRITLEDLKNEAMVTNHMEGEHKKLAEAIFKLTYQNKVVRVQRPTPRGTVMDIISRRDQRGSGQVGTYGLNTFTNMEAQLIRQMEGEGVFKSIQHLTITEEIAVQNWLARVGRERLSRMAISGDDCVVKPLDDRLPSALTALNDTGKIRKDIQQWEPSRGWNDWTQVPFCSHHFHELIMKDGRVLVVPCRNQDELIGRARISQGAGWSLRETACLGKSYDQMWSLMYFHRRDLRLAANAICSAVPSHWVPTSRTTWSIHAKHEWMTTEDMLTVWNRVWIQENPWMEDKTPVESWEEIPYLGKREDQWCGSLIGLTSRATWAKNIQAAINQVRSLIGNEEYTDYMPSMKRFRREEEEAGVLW

[2] = target: Glutathione-S-transferase (Schistosoma japonicum, UniProt Q26513); experiment: biotin-GST/anti-GST TR-FRET signal inhibitors, dose response, artefact control for Vif-APOBEC3G degradation inhibitor project, biochemical (AID 1117362); format: functional
Glutathione-S-transferase, sequence (Q26513 whole entry): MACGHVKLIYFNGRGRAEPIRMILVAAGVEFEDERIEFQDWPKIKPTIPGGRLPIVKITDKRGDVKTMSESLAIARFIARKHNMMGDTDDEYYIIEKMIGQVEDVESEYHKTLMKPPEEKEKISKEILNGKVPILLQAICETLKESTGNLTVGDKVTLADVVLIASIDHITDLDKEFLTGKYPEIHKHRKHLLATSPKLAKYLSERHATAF

[3] = target: T1, Apoptotic protease-activating factor 1 (Homo sapiens, UniProt O14727); format: functional
T1 sequence (O14727 whole entry): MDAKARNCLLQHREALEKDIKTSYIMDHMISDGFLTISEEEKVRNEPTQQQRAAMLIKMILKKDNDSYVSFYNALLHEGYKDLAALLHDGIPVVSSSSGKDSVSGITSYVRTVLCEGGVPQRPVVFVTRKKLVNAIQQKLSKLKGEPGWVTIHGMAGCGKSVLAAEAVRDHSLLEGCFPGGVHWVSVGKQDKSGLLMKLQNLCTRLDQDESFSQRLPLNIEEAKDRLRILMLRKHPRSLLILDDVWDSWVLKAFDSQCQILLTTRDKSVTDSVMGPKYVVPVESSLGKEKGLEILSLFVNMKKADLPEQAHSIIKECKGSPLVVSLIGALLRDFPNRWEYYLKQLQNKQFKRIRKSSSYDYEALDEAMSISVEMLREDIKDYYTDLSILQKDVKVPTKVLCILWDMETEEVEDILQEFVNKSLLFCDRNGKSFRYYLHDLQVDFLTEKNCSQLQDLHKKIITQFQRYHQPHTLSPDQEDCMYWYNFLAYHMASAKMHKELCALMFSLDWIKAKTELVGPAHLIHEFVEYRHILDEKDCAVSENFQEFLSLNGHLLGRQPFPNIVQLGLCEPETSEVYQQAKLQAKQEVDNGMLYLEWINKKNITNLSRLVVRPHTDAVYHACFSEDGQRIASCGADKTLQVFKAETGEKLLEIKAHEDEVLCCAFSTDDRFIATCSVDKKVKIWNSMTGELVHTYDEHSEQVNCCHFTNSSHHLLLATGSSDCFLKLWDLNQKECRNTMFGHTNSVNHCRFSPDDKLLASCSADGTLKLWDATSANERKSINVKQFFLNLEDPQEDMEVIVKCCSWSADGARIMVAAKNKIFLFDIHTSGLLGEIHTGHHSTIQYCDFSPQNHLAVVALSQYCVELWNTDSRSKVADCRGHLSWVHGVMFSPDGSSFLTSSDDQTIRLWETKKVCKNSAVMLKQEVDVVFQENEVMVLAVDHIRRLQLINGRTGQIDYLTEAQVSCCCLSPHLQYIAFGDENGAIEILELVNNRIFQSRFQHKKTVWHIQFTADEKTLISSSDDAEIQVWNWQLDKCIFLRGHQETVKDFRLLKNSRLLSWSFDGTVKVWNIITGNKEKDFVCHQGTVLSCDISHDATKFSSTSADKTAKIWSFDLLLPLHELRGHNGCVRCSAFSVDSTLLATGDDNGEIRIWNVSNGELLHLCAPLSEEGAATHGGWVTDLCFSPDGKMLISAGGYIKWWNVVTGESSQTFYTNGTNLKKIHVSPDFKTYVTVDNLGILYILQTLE

[4] = target: T2, RNA-binding protein pos-1 (Caenorhabditis elegans, UniProt G5EF15); experiment: inhibitors of POS-1/mex-3 RNA binding, dose response, biochemical, fluorescence polarization (AID 1964);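 note: purified POS-1 fused to maltose binding protein made in E. coli; potency of compounds blocking POS-1 binding to fluorescent RNA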
T2 sequence (G5EF15 whole entry): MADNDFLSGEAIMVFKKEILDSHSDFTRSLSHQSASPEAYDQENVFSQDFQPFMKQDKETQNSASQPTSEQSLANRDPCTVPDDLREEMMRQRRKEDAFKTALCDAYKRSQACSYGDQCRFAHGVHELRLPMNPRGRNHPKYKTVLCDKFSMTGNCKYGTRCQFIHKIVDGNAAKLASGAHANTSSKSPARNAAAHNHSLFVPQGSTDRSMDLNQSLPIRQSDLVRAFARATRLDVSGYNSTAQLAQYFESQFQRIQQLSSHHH

[5] = target: T3, Zinc finger protein mex-5 (Caenorhabditis elegans, UniProt Q9XUB2); experiment: MEX-5/TCR-2 RNA interaction inhibitors, dose response, biochemical, C. elegans, fluorescence polarization (AID 1960)
T3 sequence (Q9XUB2 whole entry): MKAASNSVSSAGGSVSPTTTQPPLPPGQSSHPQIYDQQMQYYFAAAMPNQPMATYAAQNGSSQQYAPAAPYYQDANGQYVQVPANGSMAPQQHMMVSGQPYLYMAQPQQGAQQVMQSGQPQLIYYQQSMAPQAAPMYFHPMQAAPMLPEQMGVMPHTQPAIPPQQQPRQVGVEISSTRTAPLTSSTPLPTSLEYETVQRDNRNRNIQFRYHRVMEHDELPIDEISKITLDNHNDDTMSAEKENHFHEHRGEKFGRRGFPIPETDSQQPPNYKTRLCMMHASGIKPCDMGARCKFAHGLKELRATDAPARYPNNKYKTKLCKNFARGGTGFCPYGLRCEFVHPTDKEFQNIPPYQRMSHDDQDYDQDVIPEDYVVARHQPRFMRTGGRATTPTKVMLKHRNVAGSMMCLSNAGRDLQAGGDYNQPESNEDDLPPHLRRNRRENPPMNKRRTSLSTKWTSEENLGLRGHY

[6] = P. falciparum late gametocyte killing, dose response, luminescence (AID 1117278); format: functional, cell-based;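 note: gametocytes exposed to compound for 24 hours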
[7] = Jurkat T cell cytotoxicity, dose response, cytotoxicity control for P. falciparum gametocyte viability project, luminescence (AID 1117277); format: functional, cell-based;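 note: potency reflects loss of cellular ATP meaning fewer viable cells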
[8] = A549 cell cytotoxicity, dose response, CellTiter-Glo luminescence, dry powder, set 17 (AID 1117284); format: functional, cell-based
[9] = A549 cell cytotoxicity, dose response, cytotoxicity control, 24 h, CellTiter-Glo luminescence, cherry-picks (AID 1053115); format: functional, cell-based; settings: A549, 24 h
[10] = target: T4, Low molecular weight phosphotyrosine protein phosphatase (Homo sapiens, UniProt P24666); experiment: LMPTP phosphatase inhibitors, dose response, biochemical, OMFP substrate, fluorescence intensity, set 2 (AID 743307); format: functional
T4 sequence (P24666 whole entry): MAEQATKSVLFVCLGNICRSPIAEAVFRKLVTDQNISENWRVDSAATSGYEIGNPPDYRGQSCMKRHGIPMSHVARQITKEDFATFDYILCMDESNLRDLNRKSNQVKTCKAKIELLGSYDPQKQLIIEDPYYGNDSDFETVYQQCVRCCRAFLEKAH

[11] = target: T4, Low molecular weight phosphotyrosine protein phosphatase; experiment: LMPTP phosphatase inhibitors, colorimetric pNPP readout, dose response, orthogonal assay, biochemical, absorbance, pNPP substrate, LMPTP-A isoform, set 2 (AID 743308); format: functional
[12] = HEK293T cell cytotoxicity, dose response, cytotoxicity control, plate reader, dry powder, set 10 (AID 743315); format: functional, cell-based; settings: HEK293
[13] = NIH-3T3 fibroblast cytotoxicity, dose response, cytotoxicity control, cell-based, fluorescence, Alamar Blue, secondary assay (AID 2327); format: functional;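 note: NIH-3T3 mouse fibroblasts cultured with fluconazole at 8 µg/mL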
cells [14] = format: functional, cell-based
cells [15] = format: functional, cell-based; remark: listed apart in the source
[16] = target: Serine/threonine-protein phosphatase (Candida dubliniensis (strain CD36 / CBS 7987 / NCPF 3949 / NRRLY-17841) (Yeast), UniProt B9W6M3); experiment: calcineurin pathway inhibitors in yeast reporter, dose response, S. cerevisiae, CDRE-lacZ, luminescence, secondary (AID 2388); format: functional, cell-based;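 note: yeast reporter cells carrying a calcineurin-responsive lacZ construct stimulated with calcium chloride; luminescent beta-galactosidase reporter signal in whole cells rather than isolated phosphatase activity; potency for inhibition where a drop in reporter signal means calcineurin blockade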
Serine/threonine-protein phosphatase, sequence (B9W6M3 whole entry): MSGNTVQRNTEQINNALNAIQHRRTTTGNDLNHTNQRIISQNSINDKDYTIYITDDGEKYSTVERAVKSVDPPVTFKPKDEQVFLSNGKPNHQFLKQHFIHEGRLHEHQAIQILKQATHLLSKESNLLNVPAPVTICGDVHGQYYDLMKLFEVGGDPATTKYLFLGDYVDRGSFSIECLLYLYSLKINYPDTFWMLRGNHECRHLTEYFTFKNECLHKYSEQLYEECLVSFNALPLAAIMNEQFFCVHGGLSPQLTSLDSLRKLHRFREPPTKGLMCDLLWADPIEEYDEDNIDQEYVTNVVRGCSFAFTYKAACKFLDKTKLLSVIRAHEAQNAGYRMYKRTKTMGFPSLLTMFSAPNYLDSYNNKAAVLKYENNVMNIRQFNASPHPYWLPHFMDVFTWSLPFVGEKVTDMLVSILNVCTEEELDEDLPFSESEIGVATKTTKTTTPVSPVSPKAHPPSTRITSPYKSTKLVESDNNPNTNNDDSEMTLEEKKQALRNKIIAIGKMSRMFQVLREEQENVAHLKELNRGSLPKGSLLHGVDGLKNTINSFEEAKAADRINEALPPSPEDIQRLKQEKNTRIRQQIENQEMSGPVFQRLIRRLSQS

[17] = target: ATP-dependent molecular chaperone HSP82 (Candida albicans (strain WO-1) (Yeast), UniProt C4YTQ8); experiment: loss of DOC-induced GRE-beta-galactosidase reporter signal, dose response, Hsp90 inhibitor project, S. cerevisiae, luminescence (AID 2400); format: functional, cell-based;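 note: beta-galactosidase luminescence from glucocorticoid response element reporter as proxy for Hsp90 function; inhibitor potency where signal loss means Hsp90 inhibition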
ATP-dependent molecular chaperone HSP82, sequence (C4YTQ8 whole entry): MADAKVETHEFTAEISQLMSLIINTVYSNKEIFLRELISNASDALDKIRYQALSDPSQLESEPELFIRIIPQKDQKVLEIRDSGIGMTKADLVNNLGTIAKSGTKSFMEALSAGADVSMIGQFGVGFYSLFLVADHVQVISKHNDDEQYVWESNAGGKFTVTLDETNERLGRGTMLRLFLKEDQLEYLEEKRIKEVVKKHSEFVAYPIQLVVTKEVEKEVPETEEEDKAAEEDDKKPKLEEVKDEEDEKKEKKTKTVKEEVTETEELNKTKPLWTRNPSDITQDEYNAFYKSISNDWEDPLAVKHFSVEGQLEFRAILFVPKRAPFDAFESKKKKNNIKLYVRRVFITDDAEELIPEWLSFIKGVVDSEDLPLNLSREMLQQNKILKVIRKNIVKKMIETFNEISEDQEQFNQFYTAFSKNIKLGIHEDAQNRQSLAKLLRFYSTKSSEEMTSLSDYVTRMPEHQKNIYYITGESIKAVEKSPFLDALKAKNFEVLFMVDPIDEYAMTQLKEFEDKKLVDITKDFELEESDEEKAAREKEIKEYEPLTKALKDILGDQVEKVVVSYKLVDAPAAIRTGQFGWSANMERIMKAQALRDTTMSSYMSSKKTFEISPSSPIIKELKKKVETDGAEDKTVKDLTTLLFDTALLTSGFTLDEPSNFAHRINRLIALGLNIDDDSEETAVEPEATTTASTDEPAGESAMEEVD

[18] = C. albicans growth with fluconazole, confirmation, fluorescence, retest (AID 2467); format: functional, cell-based
[19] = HeLa 4N DNA content increase, dose response, cell-based, IC50 (AID 1117351); format: functional
[20] = HeLa 2N DNA content increase, dose response, cell-based, IC50 (AID 1117349); format: functional
[21] = Dose-response inhibition of insulin secretion in a rat insulinoma line at 5 mM glucose (AID 1117331); format: functional, cell-based; settings: INS-1E

SMILES: Oc1ccccc1-c1cc(C(F)(F)C(F)F)[nH]n1
- CC50 [1]: > 40 µM (active)

- IC50 (Genome polyprotein): 19.8 µM (active)
- IC50 [2]: > 100 µM (active)
- IC50 [3]: 15.4 µM (active)
- EC50 [4]: 46.9 µM (active)
- EC50 [5]: 42 µM (active)
SMILES: COC(=O)CCC(=O)OC1(C)C(=O)C2=CN(CCCOC(C)C)C(c3ccc(OC)cc3)=CC2=C(Br)C1=O (configuration not stated)

SMILES: CCOC(=O)c1c(N)c2cc([N+](=O)[O-])cnc2n1C
- IC50 [6]: > 109 µM (inactive)
- IC50 [7]: > 83.4 µM (inactive)

SMILES: C[C@H]1CN([C@@H](C)CO)S(=O)(=O)c2ccc(C#CC(C)(C)O)cc2O[C@H]1CN(C)Cc1ccc(-c2ccccc2)cc1
- AC50 [8]: 20.4 µM (active)
- AC50 [9]: > 60 µM (inactive)

- IC50 [10]: > 80 µM (inactive)
- IC50 [11]: > 80 µM (inactive)
SMILES: c1ccc(-c2nc(NCCN3CCCC3)c3ccccc3n2)cc1

SMILES: CC(C)c1ccc(OCCn2c(=S)[nH]c3ccccc32)cc1
- AC50 [12]: 27.3 µM (active)

SMILES: CC(=O)N(O)CCCCCNC(=O)CCC(=O)N(O)CCCCCNC(=O)CCC(=O)N(O)CCCCCN [DEFEROXAMINE MESYLATE]
- EC50 [13]: > 150 µM (inactive)
- EC50 (cells [14]): 225 µM (active)
- EC50 (cells [15]): > 350 µM (not active)
- EC50 [16]: > 180 µM (inactive)
- EC50 [17]: > 150 µM (inactive)
- EC50 [18]: 0.578 µM (active)
- IC50 [19]: > 10 µM (inactive)
- IC50 [20]: > 10 µM (inactive)

SMILES: CN1CCC(N(Cc2cccs2)c2ccccc2)CC1 [THENALIDINE]
- IC50 [21]: 20.4 µM (inactive)
